Measured values as given in paper PMC11568214, “The impact of 9-azaglycophymine and phenylguanidine derivatives on the proliferation of various breast cancer cell lines in vitro and in vivo” (Scientific Reports, 2024).

Tests used:
HepG2 cell line = test system: HepG2 cell line; set-up: method as in PMID 34237623; conditions: read-out: IC50 against the HepG2 cell line; cited from earlier work
[1] = test system: MCF-7, MDA-MB-468, BT-474 and HCC1937 breast cancer cells; assay: Fast screening / CV cell viability, breast cancer cell line panel; type: cell-based, human; set-up: reduction of cell viability: concentration or dose not given beside the values; conditions: for anti-proliferative / cytotoxic effect: screening at 1, 10 and 50 µM; for concentration below which active in cytotoxicity screening / reduction of cell viability: initial screening; for IC50: Homo sapiens, read-out: IC50 values (National Cancer Institute guideline criterion); for reduction of cell viability: after 72 h of treatment
Method: (§1) For initial testing of the cytotoxic effect of the available glycophymine compounds (Table S2), cells were treated with compound in three concentrations: 1, 10 and 50 µM. Cells were seeded in 96-well plates and allowed to adhere overnight. Then they were treated for 72 h under standard culture conditions. […] For IC50 determination, the compounds were tested at seven concentrations (0.78, 1.56, 3.13, 6.25, 12.5, 25 and 50 µM). Subsequently, the cell viability was determined by using the crystal violet (CV) assay. Moreover, the selected compounds were tested against the mouse breast cancer cell line 4T1 (TNBC) as well. The compounds were prepared initially to obtain a stock solution of 20 mM in DMSO. Later, the working solutions were prepared by mixing the required amount of DMSO stock with the optimal medium for each cell line. The DMSO concentration in the final solution was always maintained lower than 0.5% to avoid any DMSO-derived side effects.
(§2) For CV assays, after 72 h treatment, the treatment medium was discarded from the 96-well plates, and the cells were washed using 50 µL of PBS. Cells were fixed by adding 50 µL of 4% (v/v) paraformaldehyde (PFA) in PBS for 15 min at room temperature (RT). Afterwards, PFA was discarded, and the plates were dried for 15 min at RT. 50 µL of CV working solution (0.1% w/v CV in PBS) were added to the wells, followed by 15 min incubation at RT. Subsequently, the CV solution was discarded, and the plates were washed using aqua bidest. (ddH2O) to remove any remaining CV solution. The plates were left to dry overnight at RT, and then 50 µL of 33% (v/v) acetic acid in ddH2O were added to each well. Finally, the absorbance was measured at 570 nm by using a SpectraMax M5 plate reader (Molecular Devices, California, USA) and at 670 nm as background wavelength. […] Additionally, gefitinib, an approved EGFR inhibitor of the quinazoline family, was tested as anti-proliferative positive control. The data represent the mean ± standard deviation derived from three independent biological replicates. Dose–response curves were generated by four-parametric non-linear regression analysis using the GraphPad Prism software (version: 10.1, San Diego, CA, USA). Based on that, IC50 values and standard deviations were calculated for each replicate individually.

MDA-MB-468 = assay: Crystal violet (CV) cell viability assay, IC50 determination; type: cell-based, human; conditions: Homo sapiens, MDA-MB-468, 72 h treatment, mean ± SD
Method: as §1, §2

BT-474 = assay: as above; type: cell-based; conditions: Homo sapiens, 72 h treatment, mean ± SD
Method: as §1, §2

HCC1937 = assay: as above; type: cell-based; conditions: Homo sapiens, 72 h treatment, mean ± SD
Method: as §1, §2

4T1 = assay: as above; type: cell-based; conditions: Mus musculus, 72 h treatment, mean ± SD
Method: as §1, §2

MCF-7 = assay: as above; type: cell-based; conditions: Homo sapiens, MCF7, 72 h treatment, mean ± SD
Method: as §1, §2

COc1cc(C(=O)c2nc3ccccc3c(=O)[nH]2)cc(OC)c1OC [2-(3,4,5-trimethoxybenzoyl)quinazolin-4(3H)-one]
IC50 (HepG2 cell line): 1.22 ± 0.12 µM

O=c1[nH]c(Nc2ccccc2)nc2ccccc12 [Compound 15, 2-(phenylamino)quinazolin-4(1H)-one]
anti-proliferative / cytotoxic effect ([1]; 72 h): did not show any cytotoxic effect

O=c1[nH]c(Nc2ccc(Cl)cc2)nc2ccccc12 [Compound 22]
cytotoxicity relative to compound 19 ([1]; 72 h, CV assay): twofold less
concentration below which active in cytotoxicity screening ([1]; 72 h): below 10 µM
anti-proliferative / cytotoxic effect ([1]; 72 h): significantly reduced cell proliferation
IC50 ([1]; 72 h): < 30 µg/mL
reduction of cell viability [1]: ≥ 50%
IC50 (MDA-MB-468): 13 ± 0.4 µM
IC50 (BT-474): 9.9 ± 1.5 µM
IC50 (HCC1937): 14.8 ± 3.7 µM
IC50 (4T1): 23.5 ± 7.2 µM
IC50 (MCF-7): 10 ± 0.5 µM

O=c1[nH]c(Nc2ccc(Cc3ccc([N+](=O)[O-])cc3[N+](=O)[O-])cc2)nc2ccccc12 [Compound 24]
concentration below which active in cytotoxicity screening ([1]; 72 h): below 10 µM
anti-proliferative / cytotoxic effect ([1]; 72 h): significantly reduced cell proliferation
IC50 ([1]; 72 h): < 30 µg/mL
reduction of cell viability [1]: ≥ 50%
IC50 (MDA-MB-468): 11.2 ± 1.8 µM
IC50 (BT-474): 9.7 ± 1.3 µM
IC50 (HCC1937): 11 ± 1.9 µM
IC50 (4T1): 11.3 ± 3.5 µM
IC50 (MCF-7): 10.3 ± 1.3 µM

O=c1[nH]c(Nc2ccccc2)nc2cc([N+](=O)[O-])ccc12 [Compound 46]
concentration below which active in cytotoxicity screening ([1]; 72 h): below 10 µM
anti-proliferative / cytotoxic effect ([1]; 72 h): significantly reduced cell proliferation
IC50 ([1]; 72 h): < 30 µg/mL
reduction of cell viability [1]: ≥ 50%
IC50 (MDA-MB-468): 6.9 ± 0.2 µM
IC50 (BT-474): 4.4 ± 0.1 µM
IC50 (HCC1937): 3.9 ± 0.2 µM
IC50 (4T1): 7.9 ± 0.6 µM
IC50 (MCF-7): 5.7 ± 0.6 µM

O=c1[nH]c(Nc2ccccc2)nc2ccc([N+](=O)[O-])cc12 [Compound 47]
concentration below which active in cytotoxicity screening ([1]; 72 h): below 10 µM
anti-proliferative / cytotoxic effect ([1]; 72 h): significantly reduced cell proliferation
IC50 ([1]; 72 h): < 30 µg/mL
reduction of cell viability [1]: ≥ 50%
IC50 (MDA-MB-468): 8 ± 0.3 µM
IC50 (BT-474): 4.5 ± 0.2 µM
IC50 (HCC1937): 4.4 ± 0.3 µM
IC50 (4T1): 12.6 ± 1.2 µM
IC50 (MCF-7): 6.3 ± 0.4 µM

Nc1ccc2c(=O)[nH]c(Nc3ccccc3)nc2c1 [Compound 48]
anti-proliferative / cytotoxic effect ([1]; 72 h): completely lack cytotoxic activity

Nc1ccc2nc(Nc3ccccc3)[nH]c(=O)c2c1 [Compound 49]
anti-proliferative / cytotoxic effect ([1]; 72 h): completely lack cytotoxic activity
